The test system of one assay is INS1. The assay is described as follows: beta cell apoptosis inhibitors, cytokine rescue, dose response, luminescence, retest (AID 449756).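 Further: cell death triggered by IL-1 beta plus TNF-alpha plus IFN-gamma mixture; protective hits raise ATP signal compared with cytokine alone wells.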 The class given is functional, cell-based. The note with it: Rattus norvegicus.
Assay [1] has as its system Streptococcus sp. 'group A'. As to the kind of experiment: growth inhibition of control SK(-) GAS strain, dose response, counter-screen for streptokinase expression inhibitor project, luminescence, kanamycin, BacTiterGlo, confirmation (AID 1900). In kind it is functional, organism-based. For orientation: Counterscreens check selectivity or assay interference.
Assay [2] has as its target Heat shock protein HSP 90-alpha (Homo sapiens, UniProt P07900). In kind it is functional, organism-based.
For the next assay, the system named is Streptococcus. The assay is described as follows: Group A Streptococcus viability loss, dose response, counter-screen for streptokinase expression inhibitor project, luminescence, BacTiterGlo (AID 1915).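 Further: potency for reduction of bacterial viability or growth.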 The class given is functional, organism-based.
The test system of assay [3] is HEK293. The assay is described as follows: inhibitors of LMP1-driven NF-kB reporter, dose response, cell-based, HEK293, luciferase, cherry-pick (AID 588343). In kind it is functional. The note with it: Homo sapiens.
In assay [4] the test system is HEK293. As to the kind of experiment: cytotoxicity in HEK293T NF-kB-Luc cells, SAR follow-up, cytotoxicity control for NF-kB activator project, cell-based, resazurin fluorescence (AID 493251). In kind it is functional. The settings on record: Homo sapiens. In general terms: The colour change of resazurin is a common sign of viable cells or microbes.
A short description of assay [5]: HepG2 cell cytotoxicity, dose response, cytotoxicity control for Shn3 inhibitor project, CellTiter-Glo, cherry-picked (AID 624134). In kind it is functional, cell-based.
The target of assay [6] is Histone-lysine N-methyltransferase NSD2 (Homo sapiens, UniProt O96028). The class given is biochemical.
Sequence of Histone-lysine N-methyltransferase NSD2 (O96028 whole entry): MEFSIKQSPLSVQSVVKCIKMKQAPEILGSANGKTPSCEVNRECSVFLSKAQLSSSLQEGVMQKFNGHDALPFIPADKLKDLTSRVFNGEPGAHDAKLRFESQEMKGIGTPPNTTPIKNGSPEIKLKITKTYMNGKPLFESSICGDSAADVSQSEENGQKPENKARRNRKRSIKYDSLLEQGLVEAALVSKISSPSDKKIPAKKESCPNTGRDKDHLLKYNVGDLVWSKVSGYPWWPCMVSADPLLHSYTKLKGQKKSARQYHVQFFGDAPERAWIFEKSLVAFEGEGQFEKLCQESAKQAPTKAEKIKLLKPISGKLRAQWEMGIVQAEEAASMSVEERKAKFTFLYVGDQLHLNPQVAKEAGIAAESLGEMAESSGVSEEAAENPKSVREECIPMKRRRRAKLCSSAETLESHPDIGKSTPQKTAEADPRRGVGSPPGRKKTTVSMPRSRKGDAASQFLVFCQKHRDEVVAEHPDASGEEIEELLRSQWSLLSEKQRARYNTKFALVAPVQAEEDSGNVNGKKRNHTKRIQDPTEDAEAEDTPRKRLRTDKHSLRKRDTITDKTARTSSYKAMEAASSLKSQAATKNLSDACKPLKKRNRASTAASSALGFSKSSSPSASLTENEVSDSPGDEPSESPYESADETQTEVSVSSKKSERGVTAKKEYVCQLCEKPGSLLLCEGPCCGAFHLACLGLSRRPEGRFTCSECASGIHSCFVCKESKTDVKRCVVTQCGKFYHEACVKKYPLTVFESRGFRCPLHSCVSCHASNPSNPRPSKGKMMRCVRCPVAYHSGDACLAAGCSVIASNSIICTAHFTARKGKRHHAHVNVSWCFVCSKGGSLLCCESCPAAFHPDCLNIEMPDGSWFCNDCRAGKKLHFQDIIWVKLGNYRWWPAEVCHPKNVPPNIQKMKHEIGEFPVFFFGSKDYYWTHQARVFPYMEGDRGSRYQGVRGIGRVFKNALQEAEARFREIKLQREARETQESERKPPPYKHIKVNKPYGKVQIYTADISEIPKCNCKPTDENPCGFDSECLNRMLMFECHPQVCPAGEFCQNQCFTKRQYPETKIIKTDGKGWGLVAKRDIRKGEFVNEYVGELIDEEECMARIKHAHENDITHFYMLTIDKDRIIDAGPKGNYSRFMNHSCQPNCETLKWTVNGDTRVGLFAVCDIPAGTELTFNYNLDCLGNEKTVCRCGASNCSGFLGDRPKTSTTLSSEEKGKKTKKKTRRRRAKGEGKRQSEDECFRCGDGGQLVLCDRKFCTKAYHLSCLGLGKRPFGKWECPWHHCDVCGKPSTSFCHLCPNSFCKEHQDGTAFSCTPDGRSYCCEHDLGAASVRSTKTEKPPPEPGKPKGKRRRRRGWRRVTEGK
Assay [7] deals with Cystic fibrosis transmembrane conductance regulator/Golgi-associated PDZ and coiled-coil motif-containing protein (Homo sapiens, UniProt P13569+Q9HD26). As to the kind of experiment: CAL PDZ peptide-binding inhibitors, dose response, biochemical, fluorescence polarization, Cerulean-tagged CAL PDZ, cherry-picks (AID 504773). On the technique in general: Fluorescence polarisation rises when a labelled molecule tumbles more slowly, as on binding a larger partner.
Sequence of Cystic fibrosis transmembrane conductance regulator/Golgi-associated PDZ and coiled-coil motif-containing protein (P13569 whole entry, other chains not shown): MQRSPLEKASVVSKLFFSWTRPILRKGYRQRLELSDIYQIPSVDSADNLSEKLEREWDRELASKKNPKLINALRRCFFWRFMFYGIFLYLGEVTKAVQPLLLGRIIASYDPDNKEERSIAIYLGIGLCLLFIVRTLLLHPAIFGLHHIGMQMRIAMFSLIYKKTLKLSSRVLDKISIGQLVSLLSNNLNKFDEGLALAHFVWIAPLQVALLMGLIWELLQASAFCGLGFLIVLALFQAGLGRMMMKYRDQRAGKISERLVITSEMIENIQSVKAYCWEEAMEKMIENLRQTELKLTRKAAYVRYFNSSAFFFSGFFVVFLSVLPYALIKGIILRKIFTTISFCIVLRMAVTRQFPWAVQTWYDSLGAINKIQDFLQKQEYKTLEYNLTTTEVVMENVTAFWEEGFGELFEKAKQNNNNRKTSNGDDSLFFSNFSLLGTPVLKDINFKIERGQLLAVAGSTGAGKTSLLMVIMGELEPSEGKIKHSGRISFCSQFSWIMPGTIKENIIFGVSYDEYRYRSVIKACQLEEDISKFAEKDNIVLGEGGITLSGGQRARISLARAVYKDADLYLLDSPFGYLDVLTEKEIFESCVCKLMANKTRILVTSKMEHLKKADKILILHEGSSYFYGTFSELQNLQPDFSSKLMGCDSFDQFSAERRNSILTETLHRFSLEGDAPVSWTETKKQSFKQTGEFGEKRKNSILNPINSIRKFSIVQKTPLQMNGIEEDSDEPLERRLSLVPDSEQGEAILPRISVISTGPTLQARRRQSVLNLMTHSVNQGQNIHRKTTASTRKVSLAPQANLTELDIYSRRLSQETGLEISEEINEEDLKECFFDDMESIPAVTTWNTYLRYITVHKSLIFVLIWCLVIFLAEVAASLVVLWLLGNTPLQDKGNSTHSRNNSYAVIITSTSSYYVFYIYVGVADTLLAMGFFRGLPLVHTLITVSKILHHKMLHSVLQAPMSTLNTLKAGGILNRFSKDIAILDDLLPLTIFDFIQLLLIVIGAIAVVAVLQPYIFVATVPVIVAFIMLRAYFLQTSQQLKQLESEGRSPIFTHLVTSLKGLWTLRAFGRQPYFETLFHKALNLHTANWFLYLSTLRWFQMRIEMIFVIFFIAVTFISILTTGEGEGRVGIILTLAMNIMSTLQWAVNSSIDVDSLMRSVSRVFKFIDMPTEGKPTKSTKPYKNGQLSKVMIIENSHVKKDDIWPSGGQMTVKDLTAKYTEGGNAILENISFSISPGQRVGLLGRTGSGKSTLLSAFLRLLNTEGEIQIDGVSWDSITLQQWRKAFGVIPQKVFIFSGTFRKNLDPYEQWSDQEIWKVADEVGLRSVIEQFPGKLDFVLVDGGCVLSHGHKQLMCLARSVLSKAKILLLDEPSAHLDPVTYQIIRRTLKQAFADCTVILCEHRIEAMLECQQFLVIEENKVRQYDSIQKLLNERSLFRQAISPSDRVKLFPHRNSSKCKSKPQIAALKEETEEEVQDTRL

Assay [8] addresses T1, Replicative DNA helicase DnaB (Mycobacterium tuberculosis, UniProt P9WMR3).
T1 sequence (P9WMR3 whole entry): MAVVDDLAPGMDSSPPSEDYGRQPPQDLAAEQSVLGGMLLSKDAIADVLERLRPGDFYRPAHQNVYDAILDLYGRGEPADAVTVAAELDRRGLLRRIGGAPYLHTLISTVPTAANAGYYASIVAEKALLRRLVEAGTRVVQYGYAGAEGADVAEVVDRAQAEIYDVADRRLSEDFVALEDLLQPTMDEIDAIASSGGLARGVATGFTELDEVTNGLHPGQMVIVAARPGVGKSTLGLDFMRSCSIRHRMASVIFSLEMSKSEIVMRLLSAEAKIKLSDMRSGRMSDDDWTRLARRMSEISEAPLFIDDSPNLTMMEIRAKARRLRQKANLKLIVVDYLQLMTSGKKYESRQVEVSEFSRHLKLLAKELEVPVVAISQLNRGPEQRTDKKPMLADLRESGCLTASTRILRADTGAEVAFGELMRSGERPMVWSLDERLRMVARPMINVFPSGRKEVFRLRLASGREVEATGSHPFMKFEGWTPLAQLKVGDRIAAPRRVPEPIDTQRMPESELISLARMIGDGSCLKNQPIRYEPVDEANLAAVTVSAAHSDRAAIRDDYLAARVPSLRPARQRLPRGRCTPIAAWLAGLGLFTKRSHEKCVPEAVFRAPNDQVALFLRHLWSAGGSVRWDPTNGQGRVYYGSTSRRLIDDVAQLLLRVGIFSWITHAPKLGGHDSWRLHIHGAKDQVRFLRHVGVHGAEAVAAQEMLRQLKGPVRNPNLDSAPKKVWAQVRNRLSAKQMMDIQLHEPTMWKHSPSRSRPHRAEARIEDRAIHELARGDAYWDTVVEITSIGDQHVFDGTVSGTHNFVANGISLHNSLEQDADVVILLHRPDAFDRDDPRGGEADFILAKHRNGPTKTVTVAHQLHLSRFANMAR
The assay is described as follows: DnaB intein splicing inhibitors, dose response, biochemical, cell-free fluorescence (AID 449749). In kind it is functional.

The next assay deals with T2, Protein RecA (Mycobacterium tuberculosis, UniProt P9WHJ3).
T2 sequence (P9WHJ3 whole entry): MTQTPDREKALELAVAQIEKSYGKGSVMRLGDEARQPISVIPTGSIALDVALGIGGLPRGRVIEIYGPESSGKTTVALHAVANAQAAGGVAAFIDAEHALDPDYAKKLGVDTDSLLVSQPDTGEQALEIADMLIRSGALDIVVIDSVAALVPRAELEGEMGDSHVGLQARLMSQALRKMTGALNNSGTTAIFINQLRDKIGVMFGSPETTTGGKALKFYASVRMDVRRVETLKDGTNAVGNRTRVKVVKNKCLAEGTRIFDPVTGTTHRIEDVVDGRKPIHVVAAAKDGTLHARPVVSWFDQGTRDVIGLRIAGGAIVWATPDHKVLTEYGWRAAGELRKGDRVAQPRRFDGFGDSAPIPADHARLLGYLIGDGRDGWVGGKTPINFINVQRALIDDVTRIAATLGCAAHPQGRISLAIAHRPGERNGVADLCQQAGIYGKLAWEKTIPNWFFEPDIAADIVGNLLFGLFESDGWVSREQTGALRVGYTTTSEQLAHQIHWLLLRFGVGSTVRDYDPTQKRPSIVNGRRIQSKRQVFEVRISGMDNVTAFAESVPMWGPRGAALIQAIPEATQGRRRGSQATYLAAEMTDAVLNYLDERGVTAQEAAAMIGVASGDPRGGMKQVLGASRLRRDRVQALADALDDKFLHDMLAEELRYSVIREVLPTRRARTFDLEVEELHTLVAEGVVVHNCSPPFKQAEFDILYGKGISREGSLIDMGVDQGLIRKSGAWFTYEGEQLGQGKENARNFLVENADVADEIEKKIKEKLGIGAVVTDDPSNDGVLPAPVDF
As to the kind of experiment: Fluorescence Cell-Free Homogeneous Dose Retest to Identify Inhibitors of RecA-Intein Splicing Activity. [Related pubchem assays (depositor defined):AID2097, AID2223, AID489010, AID492950]. The class given is functional.

The next assay deals with Caspase-7 (Homo sapiens, UniProt P55210). As to the kind of experiment: procaspase-7 activators, dose response, counter-screen for procaspase-3 activator project, biochemical, absorbance (AID 489013).
Sequence of Caspase-7 (P55210 24-198 limits assumed): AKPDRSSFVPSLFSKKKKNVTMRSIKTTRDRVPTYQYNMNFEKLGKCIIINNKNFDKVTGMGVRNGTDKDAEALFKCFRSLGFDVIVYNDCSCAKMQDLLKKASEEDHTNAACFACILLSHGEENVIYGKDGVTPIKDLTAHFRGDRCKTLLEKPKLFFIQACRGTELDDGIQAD
Sequence of Caspase-7 (P55210 207-303 limits assumed): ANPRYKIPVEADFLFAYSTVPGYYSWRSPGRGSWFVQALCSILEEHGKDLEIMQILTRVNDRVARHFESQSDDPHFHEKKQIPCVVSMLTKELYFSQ
A further assay concerns the target T3, Streptokinase A (Streptococcus pyogenes serotype M1, UniProt P10520).
T3 sequence (P10520 whole entry): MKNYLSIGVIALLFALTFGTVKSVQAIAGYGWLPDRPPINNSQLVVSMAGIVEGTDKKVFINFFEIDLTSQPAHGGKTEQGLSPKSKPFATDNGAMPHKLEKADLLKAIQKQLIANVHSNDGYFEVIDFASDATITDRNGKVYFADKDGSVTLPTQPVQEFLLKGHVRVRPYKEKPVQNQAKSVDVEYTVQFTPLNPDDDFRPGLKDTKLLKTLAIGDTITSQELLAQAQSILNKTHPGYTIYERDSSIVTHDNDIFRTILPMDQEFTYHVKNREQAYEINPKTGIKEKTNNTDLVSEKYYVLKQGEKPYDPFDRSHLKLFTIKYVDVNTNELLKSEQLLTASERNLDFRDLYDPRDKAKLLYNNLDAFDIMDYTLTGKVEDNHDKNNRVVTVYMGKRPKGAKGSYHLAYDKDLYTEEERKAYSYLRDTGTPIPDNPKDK
As to the kind of experiment: S. pyogenes streptokinase expression inhibitors, potency, dose response, plasminogen activation absorbance, OD405 (AID 1914).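 Further: secreted streptokinase activity via plasminogen activation per viability signal from cell pellet.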 In kind it is functional, Streptococcus pyogenes M1 GAS.

For orientation: AC50 means the concentration giving half of the maximal activity seen. One may read the EC50 as the concentration needed to bring the measured effect to its halfway point. The term IC50 denotes the concentration that inhibits the measured activity by half.

Calls of active or inactive are those of the source.

As for `CCCCC(=O)NC(c1ccco1)c1cc(Cl)c2cccnc2c1O` (stereo not given), the concentration at half-maximal activity (AC50) is 2.74 µM (active) in the assay with INS1 and 4.37 µM (active) in [2]. Also, the concentration giving a half-maximal response (EC50) in assay [1] was 4 µM (active); in the assay on Streptococcus, 8.22 µM (active).

Turning to `CCCCC(=O)NC(c1ccc(Cl)cc1)c1ccc2cccnc2c1O` (stereo not given), the AC50 in the assay on HEK293 [3] is 4.59 µM (active); with INS1 it was 0.476 µM (active); in assay [2], 15 µM (active); in [5], 1.71 µM (active). For the same compound, the IC50 with HEK293 [4] is 23.3 µM (inactive).

Regarding `COc1ccc2noc3c2c1C(=O)c1ccccc1-3`, the AC50 was > 20 µM (inactive) in assay [6], > 500 µM (inactive) in assay [7] and 1.18 µM (inconclusive) in assay [8]. At Protein RecA, the concentration giving a half-maximal response (EC50) was 3.61 µM (active).

In the case of `CCc1ccc2c(c1)C(NC(C)=O)C(=O)N2CCN1CCOCC1` (stereo not given), the concentration at half-maximal activity (AC50) in assay [8] is 22.3 µM (active). Also, at Protein RecA, the EC50 is 16.8 µM (active).

Turning to `O=C(N/N=C/c1ccccc1O)/C(O)=C\C1=NC2(CCCC2)Cc2ccccc21`, the EC50 at Caspase-7 is > 85.3 µM (inactive); in assay [1] it was 3.18 µM (active); on Streptokinase A, > 150 µM (not active); in the assay with Streptococcus, 11.2 µM (active). Also, the AC50 with HEK293 [3] was 33.4 µM (active).

The record behind these values is ChEMBL document CHEMBL1201862, “PubChem BioAssay data set” (2004).
